This passage reports IC50 results from patent US20250092016A1, “COMPOUNDS AND COMPOSITIONS FOR THE TREATMENT OF CORONAVIRAL RELATED DISEASES” (priority 2021, published 2025).

Some results are limits rather than exact numbers.

The term IC50 denotes the concentration at which inhibition is half-maximal.

The target in the first experiment is SARS-CoV-2 main protease (M^pro) (Severe acute respiratory syndrome coronavirus 2, UniProt P0DTD1). Description: Rapid-Fire MS Biochemical Assay measuring Mpro activity (5 nM Mpro). The conditions noted are these: Rapid-Fire Assay IC50, Table 1B, Mpro inhibition, 5 μM substrate peptide, 120 min.
Consider `CC1CC(N2CC(C#N)N(c3cncc4ccccc34)C2=O)C1` (single isomer, unassigned) [Compound 120c], for which the IC50 was more than 1000 nM.

Turning to `N#CC1CN(C2CCC(F)CC2)C(=O)N1c1cncc2ccccc12` (single isomer, unassigned) [Compound 121b], the IC50 is less than 20 nM.

`N#C[C@H]1CN(C2CN(S(=O)(=O)C3CC3)C2)C(=O)N1c1cncc2ccccc12` (single isomer, unassigned) [Compound 131a] returned an IC50 of 20 to 200 nM.

On to `N#C[C@@H]1CN(C2CN(S(=O)(=O)C3CC3)C2)C(=O)N1c1cncc2ccccc12` (single isomer, unassigned) [Compound 131b], for which the IC50 is more than 1000 nM.

The experiment is the same for the next values; noted with them: Table 1B, Mpro inhibition, 5 μM substrate peptide, 120 min, read-out: Rapid-Fire Assay IC50.
Take `N#C[C@H]1CN(c2cc(F)ccc2F)C(=O)N1c1cncc2ccccc12` (single isomer, unassigned) [Compound 109a]: the IC50 was less than 20 nM.

Consider `N#C[C@@H]1CN(c2cc(F)ccc2F)C(=O)N1c1cncc2ccccc12` (single isomer, unassigned) [Compound 109b], for which the IC50 is more than 1000 nM.

For the compound `N#C[C@H]1CN(c2cc(F)cc(F)c2)C(=O)N1c1cncc2ccccc12` (single isomer, unassigned) [Compound 110a], the IC50 was less than 20 nM.

On to `N#C[C@@H]1CN(c2cc(F)cc(F)c2)C(=O)N1c1cncc2ccccc12` (single isomer, unassigned) [Compound 110b], for which the IC50 lay in the range of 200 to 1000 nM.

`N#C[C@H]1CN(c2cccc(Cl)n2)C(=O)N1c1cncc2ccccc12` (single isomer, unassigned) [Compound 111a]: the IC50 is less than 20 nM.

`N#C[C@@H]1CN(c2cccc(Cl)n2)C(=O)N1c1cncc2ccccc12` (single isomer, unassigned) [Compound 111b]: the IC50 lay within 200 to 1000 nM.

`COc1ccc(N2C[C@H](C#N)N(c3cncc4ccccc34)C2=O)cn1` (single isomer, unassigned) [Compound 112a]: the IC50 is less than 20 nM.

For `COc1ccc(N2C[C@@H](C#N)N(c3cncc4ccccc34)C2=O)cn1` (single isomer, unassigned) [Compound 112b], the IC50 was more than 1000 nM.

For `Cc1ccc(Cl)cc1N1C[C@H](C#N)N(c2cncc3ccccc23)C1=O` (single isomer, unassigned) [Compound 114a], the IC50 was less than 20 nM.

With `Cc1ccc(Cl)cc1N1C[C@@H](C#N)N(c2cncc3ccccc23)C1=O` (single isomer, unassigned) [Compound 114b], the IC50 is more than 1000 nM.

Take `COc1ccc(Cl)cc1N1C[C@H](C#N)N(c2cncc3ccccc23)C1=O` (single isomer, unassigned) [Compound 115a]: the IC50 was less than 20 nM.

On to `COc1ccc(Cl)cc1N1C[C@@H](C#N)N(c2cncc3ccccc23)C1=O` (single isomer, unassigned) [Compound 115b], for which the IC50 is more than 1000 nM.

Take `Cc1ccc(C#N)c(N2C[C@H](C#N)N(c3cncc4ccccc34)C2=O)c1` (single isomer, unassigned) [Compound 116a]: the 50% inhibitory concentration (IC50) is less than 20 nM.

As to `Cc1ccc(C#N)c(N2C[C@@H](C#N)N(c3cncc4ccccc34)C2=O)c1` (single isomer, unassigned) [Compound 116b], the IC50 was 200 to 1000 nM.

With `N#Cc1cnc(C(F)(F)F)cc1N1C[C@H](C#N)N(c2cncc3ccccc23)C1=O` (single isomer, unassigned) [Compound 117a], the IC50 was less than 20 nM.

Consider `N#Cc1cnc(C(F)(F)F)cc1N1C[C@@H](C#N)N(c2cncc3ccccc23)C1=O` (single isomer, unassigned) [Compound 117b], for which the IC50 fell in the range of 200 to 1000 nM.

For the compound `Cc1c[nH]c(N2C[C@H](C#N)N(c3cncc4ccccc34)C2=O)n1` (single isomer, unassigned) [Compound 118a], the IC50 was in the range of 200 to 1000 nM.

For the compound `Cc1c[nH]c(N2C[C@@H](C#N)N(c3cncc4ccccc34)C2=O)n1` (single isomer, unassigned) [Compound 118b], the IC50 is more than 1000 nM.

On to `N#C[C@H]1CN(c2nc(Cl)c[nH]2)C(=O)N1c1cncc2ccccc12` (single isomer, unassigned) [Compound 119a], for which the IC50 fell in the range of 20 to 200 nM.

With `N#C[C@@H]1CN(c2nc(Cl)c[nH]2)C(=O)N1c1cncc2ccccc12` (single isomer, unassigned) [Compound 119b], the concentration for half-maximal inhibition (IC50) is more than 1000 nM.

As to `CC1CC(N2CC(C#N)N(c3cncc4ccccc34)C2=O)C1` (single isomer, unassigned) [Compound 120a], the IC50 was less than 20 nM.

Consider `CC1CC(N2CC(C#N)N(c3cncc4ccccc34)C2=O)C1` (single isomer, unassigned) [Compound 120d], for which the IC50 is more than 1000 nM.

Regarding `N#CC1CN(C2CCC(F)CC2)C(=O)N1c1cncc2ccccc12` (single isomer, unassigned) [Compound 121a], the IC50 is less than 20 nM.

For `N#CC1CN(C2CCC(F)CC2)C(=O)N1c1cncc2ccccc12` (single isomer, unassigned) [Compound 121d], the IC50 was more than 1000 nM.

Regarding `N#C[C@H]1CN(C2CC3(CCC3)C2)C(=O)N1c1cncc2ccccc12` (single isomer, unassigned) [Compound 122a], the IC50 was less than 20 nM.

Consider `N#C[C@@H]1CN(C2CC3(CCC3)C2)C(=O)N1c1cncc2ccccc12` (single isomer, unassigned) [Compound 122b], for which the concentration for half-maximal inhibition (IC50) was more than 1000 nM.

For `N#C[C@H]1CN(C2CC3(CC3)C2)C(=O)N1c1cncc2ccccc12` (single isomer, unassigned) [Compound 125a], the IC50 was less than 20 nM.

For `N#C[C@@H]1CN(C2CC3(CC3)C2)C(=O)N1c1cncc2ccccc12` (single isomer, unassigned) [Compound 125b], the IC50 was more than 1000 nM.

Regarding `CC1(C)CC(N2C[C@H](C#N)N(c3cncc4ccccc34)C2=O)C1` (single isomer, unassigned) [Compound 126a], the IC50 was less than 20 nM.

For the compound `CC1(C)CC(N2C[C@@H](C#N)N(c3cncc4ccccc34)C2=O)C1` (single isomer, unassigned) [Compound 126b], the IC50 is more than 1000 nM.

As for `N#C[C@H]1CN(C2CC3(C2)CC(F)(F)C3)C(=O)N1c1cncc2ccccc12` (single isomer, unassigned) [Compound 127a], the IC50 is less than 20 nM.

Consider `N#C[C@@H]1CN(C2CC3(C2)CC(F)(F)C3)C(=O)N1c1cncc2ccccc12` (single isomer, unassigned) [Compound 127b], for which the IC50 was more than 1000 nM.

For `N#C[C@H]1CN(C2CN(S(=O)(=O)C(F)(F)F)C2)C(=O)N1c1cncc2ccccc12` (single isomer, unassigned) [Compound 129a], the IC50 lay in the range of 20 to 200 nM.

With `N#C[C@@H]1CN(C2CN(S(=O)(=O)C(F)(F)F)C2)C(=O)N1c1cncc2ccccc12` (single isomer, unassigned) [Compound 129b], the IC50 is more than 1000 nM.

As to `CS(=O)(=O)N1CC(N2C[C@H](C#N)N(c3cncc4ccccc34)C2=O)C1` (single isomer, unassigned) [Compound 130a], the IC50 lay within 200 to 1000 nM.

As for `CS(=O)(=O)N1CC(N2C[C@@H](C#N)N(c3cncc4ccccc34)C2=O)C1` (single isomer, unassigned) [Compound 130b], the IC50 was more than 1000 nM.

Consider `N#C[C@H]1CN(C2CN(CC(F)(F)F)C2)C(=O)N1c1cncc2ccccc12` (single isomer, unassigned) [Compound 133a], for which the IC50 was less than 20 nM.
